Assays:
S. aureus ATCC 25923 = assay: Agar-well diffusion antimicrobial screening; assay type: cell-based; settings: Staphylococcus aureus, ATCC25923; 50 μL of DMSO stock (concentration in c1) per 5 mm well, 18 h at 35 °C; standard ampicillin 10 μg; read-out: Inhibition Zone Sa
B. cereus 709 Roma = assay: Agar-well diffusion antimicrobial screening; assay type: cell-based; settings: Bacillus cereus, 50 μL of DMSO stock (concentration in c1) per 5 mm well, 18 h at 35 °C, standard ampicillin 10 μg, read-out: Inhibition Zone Bc
P. aeruginosa ATCC 10145 = assay: Agar-well diffusion antimicrobial screening; assay type: cell-based; settings: Pseudomonas aeruginosa, ATCC10145; 50 μL of DMSO stock (concentration in c1) per 5 mm well, 18 h at 35 °C; standard ampicillin 10 μg; read-out: Inhibition Zone Pa
[1] = tested on: Y. pseudotuberculosis ATCC 911; assay: microbe, parasite or virus in culture; assay type: cell-based; settings: Yersinia pseudotuberculosis, ATCC911, 18 h, read-out: Inhibition Zone Yp
E. coli ATCC 35218 = assay: Agar-well diffusion antimicrobial screening; assay type: cell-based; settings: Escherichia coli, ATCC35218, 18 h, read-out: Inhibition Zone Ec
E. faecalis ATCC 29212 = assay: Agar-well diffusion antimicrobial screening; assay type: cell-based; settings: Enterococcus faecalis, ATCC29212; 50 μL of DMSO stock (concentration in c1) per 5 mm well, 18 h at 35 °C; standard ampicillin 10 μg; read-out: Inhibition Zone Ef
[2] = Superoxide radical scavenging assay (NBT photo reduction method); settings: pH 7.8, 30 °C, 10 min, 560 nm, mean ± S.D., triplicate
Protocol: Superoxide scavenging activity of the compounds and reference were tested in a non-enzymatic superoxide radical (O2^−•) generation assay using a modified spectrophotometrical nitro blue tetrazolium (NBT) photo reduction method. The total volume of the assay mixtures containing riboflavin (2 μM), methionine (13 mM), NBT ([…]), EDTA (0.1 mM), and the test samples (50 mM phosphate buffer, pH = 7.8) was 1 mL. After illuminating with a fluorescent lamp at 30 °C for 10 min., the absorbance of the samples (Asample) was measured at 560 nm. Assay mixture without the compound was used as control (control absorbance, Acontrol). All experiments were carried out in triplicate and results were expressed as the mean ± standard deviation (S.D.). Free O2^−• radical scavenging effect was calculated using Equation (1).

[3] = molecular target: T1, Electric eel acetyl-cholinesterase enzyme (AchE, Type-VI-S; EC 3.1.1.7) (Electrophorus electricus, UniProt O42275); assay: biochemical; settings: mean ± S.D. of three independent experiments; Tris-HCl pH 8.00, 412 nm
T1 construct: purchased Sigma-Aldrich Type-VI-S
Protocol: Firstly, all of the compounds stock solution in DMF (1 × 10^−3 M) were prepared and then five different concentrations were prepared from stock solution in buffer (Tris-HCI pH 8.00) for experiments. Briefly 50 µL of 50 mM Tris-HCl buffer (pH 8.00), 125 µL of 3 mM DTNB (in buffer), 25 µL of 0.2 U/mL AChE and 25 µL of sample dissolved in buffer and incubated for 15 min. at 25 °C. Fifteen minutes later, 25 µL of 15 mM acetyl thiocholine iodide were added and incubated 5 min. at room temperature. The reaction was initiated by the addition of acetylcholine iodide. The hydrolysis of this substrate was monitored by the formation of the yellow 5-thio-2-nitrobenzoate anion as a result of the reaction DTNB with thiocholine, catalized by enzyme at a wave length of 412 nm using a 96-well microplate reader (Multiskan Go UV-spectrophotometer, Thermo Fisher Scientific Oy Ratastie 2, Vantaa, Finland).
Inhibition of AChE was calculated by the comparison of reaction rates of the samples relative to the blank sample (DMF in phosphate buffer pH = 8) using the Equation (1) where Acontrol is the activity of enzyme without test sample and Asample is the activity of enzyme with test sample: (1) Scavenging effects (%)=[(Acontrol−Asample)/Acontrol]×100
The experiments were carried out in triplicate and IC50 values were examined.

[4] = DPPH radical scavenging assay; settings: 0.1 mM methanolic DPPH, 30 min in the dark, 517 nm; mean ± S.D., triplicate
Protocol: Some 1,2,3-triazole compounds are known to act either as inhibitors of free radical production or as radical scavengers. Therefore, the potential antioxidant property of the new 1,2,3-trizole compounds was evaluated by determining their DPPH and SOD radical scavenging ability. DPPH is a stable free radical that accepts an electron or hydrogen radical to become a stable species. Due to its odd electron, DPPH gives a strong absorption band at 517 nm. Antioxidants are suitable reducing agents and neutralize the free radicals by pairing the DPPH odd electron with a hydrogen atom, and the DPPH solution turns yellow, observed as the decrease in absorbance at 517 nm.
The compounds were tested for in vitro antioxidant activities by the 2,2-diphenyl-1-picrylhydrazyl (DPPH) free radical scavenging assay method. The total volume of the assay mixtures containing methanolic DPPH solution (0.1 mM) and different concentrations of samples was 1 mL. After incubation in the dark at room temperature for 30 min., absorbance of the samples (Asample) was measured at 517 nm. Assay mixture without compound was used as control (control absorbance, Acontrol). All experiments were carried out in triplicate and results were expressed as the mean ±standard deviation (S.D.). Butylatedhydroxyanisole (BHA) were used as the reference compound. Free radical scavenging effect was calculated using Equation (1).

S. cerevisiae RSKK 251 = assay: Agar-well diffusion antimicrobial screening; assay type: cell-based, Saccharomyces cerevisiae
C. albicans ATCC 60193 = assay: Agar-well diffusion antimicrobial screening; assay type: cell-based, Candida albicans; settings: Candida albicans, ATCC60193, 18 h, read-out: Inhibition Zone Ca
M. smegmatis ATCC607 = assay: Agar-well diffusion antimicrobial screening; assay type: cell-based, Mycobacterium smegmatis; settings: Mycolicibacterium smegmatis, ATCC607, 72 h; 50 μL of DMSO stock (concentration in c1) per 5 mm well, BHI agar, 3 days at 35 °C; standard streptomycin 10 µg; read-out: Inhibition Zone Ms

T1 sequence (O42275 24-633): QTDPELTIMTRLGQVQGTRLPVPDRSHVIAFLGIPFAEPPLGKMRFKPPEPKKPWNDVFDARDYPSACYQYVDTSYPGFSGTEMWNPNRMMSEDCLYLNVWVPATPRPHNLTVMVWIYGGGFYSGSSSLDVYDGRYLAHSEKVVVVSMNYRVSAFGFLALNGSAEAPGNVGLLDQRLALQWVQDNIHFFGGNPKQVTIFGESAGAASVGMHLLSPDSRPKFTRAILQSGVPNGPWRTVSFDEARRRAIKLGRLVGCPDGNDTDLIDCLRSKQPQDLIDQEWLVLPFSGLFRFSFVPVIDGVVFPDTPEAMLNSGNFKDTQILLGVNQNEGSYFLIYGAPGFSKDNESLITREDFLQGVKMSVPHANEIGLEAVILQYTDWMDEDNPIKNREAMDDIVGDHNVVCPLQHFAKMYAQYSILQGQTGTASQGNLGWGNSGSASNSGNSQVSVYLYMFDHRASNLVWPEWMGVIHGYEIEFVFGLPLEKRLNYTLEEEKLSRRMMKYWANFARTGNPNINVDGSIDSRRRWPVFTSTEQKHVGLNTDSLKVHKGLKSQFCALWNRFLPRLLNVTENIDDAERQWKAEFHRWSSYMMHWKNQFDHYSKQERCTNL

CC1(C)S[C@@H]2[C@H](NC(=O)[C@H](N)c3ccccc3)C(=O)N2[C@H]1C(=O)O [Amp, Ampicillin]
zone of inhibition at 10 µg/disc (S. aureus ATCC 25923): 10 mm
zone of inhibition at 10 µg/disc (B. cereus 709 Roma): 15 mm
zone of inhibition at 10 µg/disc (P. aeruginosa ATCC 10145): 18 mm
zone of inhibition at 10 µg/disc [1]: 10 mm
zone of inhibition at 10 µg/disc (E. coli ATCC 35218): 10 mm
zone of inhibition at 10 µg/disc (E. faecalis ATCC 29212): 35 mm

COc1cc(C(C)=O)ccc1OCc1cn(CCCCCCn2cc(COc3ccc(C(C)=O)cc3OC)nn2)nn1 [Compound 3d, 1-(4-((1-(6-(4-((4-Acetyl-2-methoxyphenoxy)methyl)-1H-1,2,3-triazol-1-yl)hexyl)-1H-1,2,3-triazol-4-yl)-methoxy)-2-methoxyphenyl)ethan-1-onen]
SOD IC50 [2]: 128.24 (±0.10) µg/mL
IC50 [3]: 75.7 µM
DPPH IC50 [4]: 149.21 (±0.06) µg/mL
Inhibition Zone Sc (S. cerevisiae RSKK 251): -

OC(Cn1cncn1)(Cn1cncn1)c1ccc(F)cc1F [Flu., Fluconazole, reference compound]
zone of inhibition at 5 µg/disc (S. cerevisiae RSKK 251; Saccharomyces cerevisiae, RSKK251, 50 μL of DMSO stock (concentration in c1) per 5 mm well, 18 h at 35 °C, standard fluconazole 5 μg, read-out: Inhibition Zone Sc): 25 mm
zone of inhibition at 5 µg/disc (C. albicans ATCC 60193): 25 mm

[H]/N=C(/N)N[C@H]1[C@H](O)[C@@H](O)[C@H](O[C@@H]2O[C@@H](C)[C@](O)(C=O)[C@H]2O[C@@H]2O[C@@H](CO)[C@H](O)[C@@H](O)[C@@H]2NC)[C@@H](N/C(N)=N\[H])[C@@H]1O [Strep, Streptomycin]
zone of inhibition at 10 µg/disc (M. smegmatis ATCC607): 35 mm
